Assay results taken from ChEMBL document CHEMBL5370646, “Synthesis and Conformational Analysis of FR901464-Based RNA Splicing Modulators and Their Synergism in Drug-Resistant Cancers” (J Med Chem, 2023).
Calls of active or inactive are those of the source. The rule behind the calls is not given here.

Assays:
[1] = system: DMS-53; assay: Synergistic antiproliferative activity against human DMS-53 cells assessed as combination index at 1.5 nM incubated for 72 hrs in presence of […] venetoclax by WST-1 assay; type: functional
[2] = Synergistic antiproliferative activity against human Osimertinib-resistant HCC827AR cell assessed as combination index at 2.5 nM incubated for 72 hrs in presence of 1 uM osimertinib by WST-1 assay; type: functional
[3] = system: DMS-114; assay: Synergistic antiproliferative activity against human DMS-114 cells assessed as combination index at 3 nM incubated for 72 hrs in presence of 2.4 uM venetoclax by WST-1 assay; type: functional
[4] = system: DMS-53; assay: Synergistic antiproliferative activity against human DMS-53 cells assessed as combination index at 2 nM incubated for 72 hrs in presence of […] venetoclax by WST-1 assay; type: functional
[5] = system: DMS-114; assay: Synergistic antiproliferative activity against human DMS-114 cells assessed as combination index at 1 nM incubated for 72 hrs in presence of 12 uM venetoclax by WST-1 assay; type: functional
[6] = Metabolic stability in CD1 mouse plasma measured after 48 hrs by LC-MS analysis; type: ADME, cell-free
[7] = system: DMS-53; assay: Synergistic antiproliferative activity against human DMS-53 cells assessed as combination index at 2 nM incubated for 72 hrs in presence of 200 […] by WST-1 assay; type: functional
[8] = Synergistic antiproliferative activity against human Osimertinib-resistant HCC827AR cell assessed as combination index at 1 nM incubated for 72 hrs in presence of 2 uM osimertinib by WST-1 assay; type: functional
[9] = Synergistic antiproliferative activity against human Osimertinib-resistant HCC827AR cell assessed as combination index at 2 nM incubated for 72 hrs in presence of 0.50 uM osimertinib by WST-1 assay; type: functional
[10] = system: DMS-53; assay: Synergistic antiproliferative activity against human DMS-53 cells assessed as combination index at 1 nM incubated for 72 hrs in presence of […] venetoclax by WST-1 assay; type: functional
[11] = Growth inhibition of human CCD-841CoN cells assessed as reduction in cell viability incubated for 72 hrs; type: toxicity, cell-based
[12] = system: DMS-114; assay: Synergistic antiproliferative activity against human DMS-114 cells assessed as combination index at 3 nM incubated for 72 hrs in presence of 12 uM venetoclax by WST-1 assay; type: functional
[13] = Synergistic antiproliferative activity against human Osimertinib-resistant HCC827AR cell assessed as combination index at 2.5 nM incubated for 72 hrs in presence of 0.50 uM osimertinib by WST-1 assay; type: functional
[14] = system: DMS-53; assay: Synergistic antiproliferative activity against human DMS-53 cells assessed as combination index at 1 nM incubated for 72 hrs in presence of 50 uM venetoclax by WST-1 assay; type: functional
[15] = system: DMS-53; assay: Synergistic antiproliferative activity against human DMS-53 cells assessed as combination index at 1 nM incubated for 72 hrs in presence of […] venetoclax by WST-1 assay; type: functional
[16] = Synergistic antiproliferative activity against human Osimertinib-resistant HCC827AR cell assessed as combination index at 1.5 nM incubated for 72 hrs in presence of 0.50 uM osimertinib by WST-1 assay; type: functional
[17] = system: DMS-53; assay: Synergistic antiproliferative activity against human DMS-53 cells assessed as combination index at 0.5 nM incubated for 72 hrs in presence of […] venetoclax by WST-1 assay; type: functional
[18] = system: DMS-53; assay: Synergistic antiproliferative activity against human DMS-53 cells assessed as combination index at 2 nM incubated for 72 hrs in presence of 400 […] by WST-1 assay; type: functional
[19] = system: DMS-114; assay: Synergistic antiproliferative activity against human DMS-114 cells assessed as combination index at 3 nM incubated for 72 hrs in presence of 3.6 uM venetoclax by WST-1 assay; type: functional
[20] = system: DMS-114; assay: Synergistic antiproliferative activity against human DMS-114 cells assessed as combination index at 1 nM incubated for 72 hrs in presence of 6 uM venetoclax by WST-1 assay; type: functional
[21] = system: HCT-116; assay: Modulation of RNA splicing in human HCT-116 cells assessed as decrease in MCL-1S expression by Western blot analysis; type: functional, cell-based; conditions: dose 3-100 nM
[22] = system: DMS-114; assay: Modulation of RNA splicing in human DMS-114 cells at 3 to 30 nM by Western blot analysis; type: functional, cell-based; conditions: dose 3-30 nM
[23] = system: DMS-53; assay: Synergistic antiproliferative activity against human DMS-53 cells assessed as combination index at 1.5 nM incubated for 72 hrs in presence of 50 uM venetoclax by WST-1 assay; type: functional
[24] = Synergistic antiproliferative activity against human Osimertinib-resistant HCC827AR cell assessed as combination index at 2 nM incubated for 72 hrs in presence of 4 uM osimertinib by WST-1 assay; type: functional
[25] = system: HCT-116; assay: Modulation of RNA splicing in human HCT-116 cells assessed as decrease in SF3B1 phosphorylation at thr313 residue by Western blot analysis; type: functional, cell-based; conditions: dose 3-100 nM
[26] = system: DMS-53; assay: Synergistic antiproliferative activity against human DMS-53 cells assessed as combination index at 1 nM incubated for 72 hrs in presence of 25 uM venetoclax by WST-1 assay; type: functional
[27] = system: DMS-53; assay: Synergistic antiproliferative activity against human DMS-53 cells assessed as combination index at 0.5 nM incubated for 72 hrs in presence of 50 uM venetoclax by WST-1 assay; type: functional
[28] = Synergistic antiproliferative activity against human Osimertinib-resistant HCC827AR cell assessed as combination index at 2.5 nM incubated for 72 hrs in presence of 0.25 uM osimertinib by WST-1 assay; type: functional
[29] = system: DMS-114; assay: Synergistic antiproliferative activity against human DMS-114 cells assessed as combination index at 3 nM incubated for 72 hrs in presence of 6 uM venetoclax by WST-1 assay; type: functional
[30] = system: DMS-114; assay: Synergistic antiproliferative activity against human DMS-114 cells assessed as combination index at 2 nM incubated for 72 hrs in presence of 3.6 uM venetoclax by WST-1 assay; type: functional
[31] = system: DMS-53; assay: Synergistic antiproliferative activity against human DMS-53 cells assessed as combination index at 2 nM incubated for 72 hrs in presence of 50 […] by WST-1 assay; type: functional
[32] = system: DMS-53; assay: Synergistic antiproliferative activity against human DMS-53 cells assessed as combination index at 2 nM incubated for 72 hrs in presence of 25 […] by WST-1 assay; type: functional
[33] = system: SW48; assay: Growth inhibition of human SW48 cells assessed as reduction in cell viability incubated for 72 hrs; type: functional
[34] = system: DMS-114; assay: Growth inhibition of human DMS-114 cells assessed as reduction in cell viability incubated for 72 hrs; type: functional
[35] = system: DMS-114; assay: Synergistic antiproliferative activity against human DMS-114 cells assessed as combination index at 2 nM incubated for 72 hrs in presence of 6 uM venetoclax by WST-1 assay; type: functional
[36] = Synergistic antiproliferative activity against human Osimertinib-resistant HCC827AR cell assessed as combination index at 1 nM incubated for 72 hrs in presence of 0.25 uM osimertinib by WST-1 assay; type: functional
[37] = Synergistic antiproliferative activity against human Osimertinib-resistant HCC827AR cell assessed as combination index at 2 nM incubated for 72 hrs in presence of 0.25 uM osimertinib by WST-1 assay; type: functional

COCO[C@@H](C)/C=C\C(=O)N[C@@H]1C[C@H](C)[C@H](C/C=C(C)/C=C/[C@H]2OC(C)(C)C[C@@]3(CO3)[C@@H]2O)O[C@@H]1C
CI [1]: 0.51
CI [2]: 1.04
CI [3]: 0.21
CI [4]: 0.42
CI [5]: 0.88
Stability [6]: Stable
CI [7]: 0.4
CI [8]: 1.37
CI [9]: 1.08
CI [10]: 0.91
GI50 at 72 h [11]: 9.6 nM
CI [12]: 0.14
CI [13]: 0.99
CI [14]: 0.8
CI [15]: 1.08
CI [16]: 1.28
CI [17]: 1.35
CI [18]: 0.33
CI [19]: 0.23
CI [20]: 1.46
Activity [21]: Dose-Dependent Effect
Activity [22]: Active
CI [23]: 0.63
CI [24]: 0.87
Activity [25]: Dose-Dependent Effect
CI [26]: 1.04
CI [27]: 1.26
CI [28]: 0.83
CI [29]: 0.2
CI [30]: 0.63
CI [31]: 0.47
CI [32]: 0.58
GI50 [33]: 2.5 nM
GI50 [34]: 2.3 nM
CI [35]: 0.67
CI [36]: 1.06
CI [37]: 0.97
